Measured values reported in patent US5066671A, “Ellagic acid derivatives as phospholipase A2 inhibitors” (American Home Products Corporation, priority 1990, dated 1991).

What was measured:
[1] = test system: paw edema induced by the exogenous administration of PLA2; test: animal or person; format: in vivo, male CD-1 mice; settings: for ED50 mg/kg p.o. at +10 min.: mouse, in vivo; for ED50 mg/kg p.o. at +10 min. / ED50: po; for ED50 mg/kg p.o. at +10 min. (result in words) / % Change in Edema, 10 min: 10 min after PLA2 injection; for ED50 mg/kg p.o. at +10 min. (result in words): standard drugs; for % Change in Edema, 30 min: 30 min after PLA2 injection; for % Change in Edema, 60 min: 60 min after PLA2 injection; for ED50: Mus musculus, 10 min, read-out: ED50 mg/kg p.o. at +10 min.
Description: The ability of the compounds of the invention to inhibit paw edema induced by the exogenous administration of PLA2 is measured in the in vivo PLA2 murine paw edema assay.
The assay is carried out as follows:
Non-fasted, male CD-1 mice (8 weeks old; 31-36 grams) are placed in plastic boxes in groups of six. The right hind paw volume is measured using mercury plethysmography (zero time). Compounds are dosed orally (0.5 mL of 0.5% Tween80) 1 or 3 hours prior to PLA2 injection or intravenously (0.2 mL in 0.3% dimethylsulfoxide/saline) 3 minutes prior to PLA2 injection. A solution of purified PLA2, from the diamond back cotton mouth snake (A. piscivorus piscivorus) is prepared in saline at a concentration of 6 μg/mL. Fifty (50) μL (0.3 μg) of this PLA2 solution is injected subcutaneously into the right hind paw with a plastic 1 mL plastic syringe (27 gauge, 1" needle). Paw volume of the injected paw is measured again at 10 minutes, 30 minutes and 60 minutes after PLA2 injection. Animals are euthanized with CO2 at the completion of the study.
The paw edema is calculated by subtracting the zero time volume from the volume recorded at each time period. Mean paw edema for each treatment group is then calculated and expressed as (μL±S.E.). Drug effects are expressed as a percent change from control (vehicle) values. Statistical significance is determined by a oneway analysis of variance with LSD comparison to control (p<0.05). ED50 's are determined using repression analysis.

carrageenan paw edema = test: rat carrageenan paw edema assay; format: in vivo, male Sprague-Dawley rats; settings: for ED50: Rattus norvegicus, po, 3 h, read-out: Oral ED50 (95% C.L.) mg/kg
Description: The compounds of the invention are tested in the rat carrageenan paw edema assay to determine their ability to inhibit the acute inflammatory response.
(§1) This assay is carried out as follows:
140-180 gm male Sprague-Dawley rats, in groups of 6 animals, are injected subcutaneously in the right paw with 0.1 ml of 1% carrageenan at zero time. Mercury plethysmographic readings (ml) of the paw are made at zero time and 3 hours later. Test compounds are suspended or dissolved in 0.5% methylcellulose and given perorally 1 hour prior to carrageenan administration.
The increase in paw volume (edema in ml) produced by the carrageenan is measured. Paw edema is calculated (3 hour volume minus zero time volume), and percent inhibition of edema is determined. Unpaired Student's t-test is used to determine statistical significance.

[2] = test system: paw edema induced by the exogenous administration of PLA2; format: in vivo, male CD-1 mice
[3] = Derwent Publications 78-88538A; cited from earlier work
[4] = test system: synthesis of LTB4 by rat glycogen-elicited polymorphonuclear leukocytes; test: inhibition of LTB4 synthesis by rat glycogen-elicited polymorphonuclear leukocytes (PMN); format: cell-based; settings: Leukocyte
Description: Accordingly, the specificity of action of PLA2 inhibitors can be determined by the activity of test compounds in this assay, which measures the ability of compounds to inhibit the synthesis of LTB4 by rat glycogen-elicited polymorphonuclear leukocytes (PMN) in the presence of exogenous substrate.
To 1 mL aliquots of cell suspension, test drugs or vehicle are added, then preincubated at 37° C. for 10 minutes. A23187 (1 μM), [^3 H]-AA (3.0 μCi/mL) and unlabeled AA (1 μM) are then added and the samples are further incubated for 10 minutes. […]
Injections: 140 μL of each supernatant is injected directly onto column and ^3 H arachidonic acid metabolites are monitored using an on-line radioactivity detector (Ramona, IN/US, Fairfield, NJ). […]
Results are expressed as percent inhibition at a given compound dose.

[5] = test system: synthesis of the arachidonic acid cyclooxygenase oxidation product TxB2; test: inhibition of TxB2 synthesis by rat polymorphonuclear leukocytes (cyclooxygenase activity); format: cell-based; settings: rat PMN
Description: Rat polymorphonuclear leukocytes (PMNs) are obtained from female Wistar rats (150-200 g) which receive an injection of 6% glycogen (10 ml i.p.). Rats are sacrificed 18-24 hours post injection by CO2 asphyxiation and the elicited cells are harvested by peritoneal lavage using physiological saline (0.9% NaCl). The exudate is centrifuged at 400 xg for 10 minutes. The supernatant fluid is discarded and the cell pellet is resuspended to a concentration of 2.0×10^7 cells/mL in HBSS containing Ca^++ and Mg^++ and 10 μM L-cysteine.
To 1 mL aliquots of cell suspension, test drugs or vehicle are added, then preincubated at 37° C. for 10 minutes. A23187 (1 μM), [^3 H]-AA (3.0 μCi/mL) and unlabeled AA (1 μM) are then added and the samples are further incubated for 10 minutes. The reaction is terminated by centrifugation and pelleting cells. Supernatants are then analyzed by HPLC analysis on a 15 cm×4.6 mm ID supelcosil LC-18 (Supelco)(3M) column, using a two solvent system at a flow rate of 1.4 mL total flow as follows:
In this assay, the procedure of Example 1 is carried out as described. However, in order to determine cyclooxygenase activity, the samples are cochromatographed with authentic reference [^3 H]-TxB2.
The results are calculated as in Example 1 and presented below: […]

Human Platelet PLA2 = target: T1, Human Platelet PLA2 (Homo sapiens, UniProt P14555); test: in vitro isolated phospholipase A2 assay, human platelet PLA2; format: biochemical
T1 construct: platelet acid extract PLA2; from tissue; host or cells: human platelets (semipurified acid extract)
T1 sequence (P14555 21-144): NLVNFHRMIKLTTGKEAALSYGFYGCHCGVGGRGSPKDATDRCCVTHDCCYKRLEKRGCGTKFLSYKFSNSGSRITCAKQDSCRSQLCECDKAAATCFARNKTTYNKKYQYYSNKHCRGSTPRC
Description: (§2) The compounds of the invention are tested in an in vitro isolated phospholipase A2 assay to determine the ability of the test compounds to inhibit the release of arachidonic acid from an arachidonic acid-containing substrate by the action of phospholipase A2 enzyme from human and non-human sources.
as §1
(§3) Into a 15 mL polypropylene tube are added the following:
(§4) ^3 H-AA E.coli substrate^1
(§5) PLA2 25 Volume yielding 12%
(§6) 100 hydrolysis in 10 min.
(§7) *pre-incubate at room temperature 30 min prior to substrate addition.
(§8) ^5 Stock 10 mM prepared in dimethyl sulfoxide. Make 1:2 dilution with
(§9) dimethyl sulfoxide and add 1 μL to 100 μL assay tube.
(§10) ^ 6 Two human PLA2 enzymes are used: (a) Semipurified human
(§11) platelet acid extract PLA2 (in 10 mM sodium acetate buffer, pH 4.5).
(§12) Remove protein precipitate by centrifugation at about 2200 rpm for 10
(§13) minutes. (b) Purified human synovial fluid.
(§14) Incubate the 100 μL reaction mixture for 10 minutes at 37° C. in a shaking water bath. The reaction is terminated by the addition of 2 mL tetrahydrofuran, followed by vortexing. NH2 columns (100 μg/mL-Analytichem International) are conditioned with 0.5 mL tetrahydrofuran followed by 0.5 mL tetrahydrofuran/water (2 mL:0.1 mL, v/v).
(§15) The sample is loaded onto the columns and slowly drawn through them. The hydrolyzed arachidonic acid retained in the columns is eluted therefrom with 1 mL tetrahydrofuran/glacial acetic acid (2%). The arachidonic acid is transferred to scintillation vials and quantitated by β-counting analysis. A "total counts" sample is prepared by pipetting 25 μL ^3 H-arachidonate E. coli directly into a scintillation vial to which is added 1 mL tetrahydrofuran. 10 mL aquasol (scintillation cocktail) is added to all samples. [formula]

Human Synovial PLA2 = target: T2, Human Synovial PLA2 (Homo sapiens, UniProt P14555); test: in vitro isolated phospholipase A2 assay, human synovial fluid PLA2; format: biochemical; settings: for IC50: compounds of the invention, read-out: IC50 HSF (human synovial fluid)
T2 construct: Purified human synovial fluid; from tissue; host or cells: human synovial fluid (purified)
T2 sequence (P14555 21-144): T1 sequence (P14555 21-144)
Description: as §2, §1, §3, §4, §5, §6, §7, §8, §9, §10, §11, §12, §13, §14, §15

Hageman factor = settings: Ratnoff et al., J. Lab. Clin. Med. 63, 359 (1964); cited from earlier work

For `COc1ccc2cc([C@H](C)C(=O)O)ccc2c1` [Naproxen, reference compound], the “ED50 mg/kg p.o. at +10 min.” value [1] was 18 mg/kg.
For `CC(=O)Oc1ccccc1C(=O)O` [Aspirin], the ED50 (carrageenan paw edema) was 145 mg/kg.
With `C[C@@H]1C[C@H]2[C@@H]3CCC4=CC(=O)C=C[C@]4(C)[C@@]3(F)[C@@H](O)C[C@]2(C)[C@@]1(O)C(=O)CO` [Dexamethasone, reference compound] the “ED50 mg/kg p.o. at +10 min.” value [1] was 10 mg/kg.
In the case of Luffarrellolide [reference compound], the “ED50 mg/kg p.o. at +10 min. (result in words)” value [1] is reported as “Not Active” and the “inhibition only when coinjected with enzyme” value [2] is reported as 30%.
In the case of `COc1c(O)cc2c(=O)oc3c(OC)c(O)cc4c(=O)oc1c2c34` [3,3'dimethyl ellagic acid], the antitumor activity [3] is listed as “antitumor activity”.
`O=c1oc2c(O)c(O)cc3c(=O)oc4c(O)c(O)cc1c4c23` [Example 1, 4, 4', 5, 5', 6, 6'-hexahydrodiphenic acid 2,6, 2', 6'-dilactone] gave an inhibition at 10 µM [4] of 39%, an inhibition at 10 µM ([5]; Leukocyte) of 4% and an inhibition at 50 µM (Human Platelet PLA2; at 50 μM (footnote +), read-out: % Inhibition, HP (human platelet)) of 38.8%. The “% Inhibition, HSF (human synovial fluid)” value (Human Synovial PLA2; at 50 μM (footnote +), 50 µM) was 89.5%, the inhibition at 50 µM (Human Synovial PLA2; at 50 μM (footnote +), read-out: % Inhibition, HSF (human synovial fluid)) was 86.5% and the IC50 (Human Synovial PLA2) was 21 nM. For the same compound, the “% Change in Edema, 10 min” value ([1]; 10 mg/kg i.v.) was -22%, the “% Change in Edema, 30 min” value ([1]; 10 mg/kg i.v.) was -64% and the “% Change in Edema, 60 min” value ([1]; 10 mg/kg i.v.) was -18%. For the same compound, the “% Change in Edema, 10 min” value ([1]; 100 mg/kg p.o.) was -35%, the “% Change in Edema, 30 min” value ([1]; 100 mg/kg p.o.) was “+4%” and the “% Change in Edema, 60 min” value ([1]; 100 mg/kg p.o.) was -73%. The “% Inhibition at 50 mg/kg (peroral)” value (carrageenan paw edema; 50 mg/kg peroral, 1 hour prior to carrageenan, edema at 3 hours) was 37% and the “ability to activate Hageman factor” value (Hageman factor) was “ability to activate Hageman factor”.
For `NC1=NN(c2cccc(C(F)(F)F)c2)CC1` [BW755C, reference compound], the ED50 [1] was 50 mg/kg.
In the case of Ellagic Acid Diacetate [Example 3], the “% Inhibition (TxB2 synthesis)” value ([5]; at 10 μM) is reported as 9%, the “% Inhibition at 10 μM, HP (human platelet)” value (Human Platelet PLA2; at 10 μM) is reported as 0% and the “% Inhibition at 10 μM, HSF (human synovial fluid)” value (Human Synovial PLA2; at 10 μM) is reported as 95.6%. It also gave an IC50 (Human Synovial PLA2) of 360 nM.
Compound `CC(=O)Oc1cc2c(=O)oc3c(OC(C)=O)c(OC(C)=O)cc4c(=O)oc(c1OC(C)=O)c2c34` [Example 2, Ellagic Acid Tetraacetate] has an inhibition at 10 µM [4] of -31%, an inhibition at 10 µM (Human Platelet PLA2; read-out: % Inhibition at 10 μM, HP (human platelet)) of -16.6% and an inhibition at 10 µM (Human Synovial PLA2; read-out: % Inhibition at 10 μM, HSF (human synovial fluid)) of 90.7%.
For `COc1cccc2c1cc([N+](=O)[O-])c1c(C(=O)O)cc3c(c12)OCO3` [Aristolochic Acid, reference compound], the “ED50 mg/kg p.o. at +10 min. (result in words)” value [1] was “Not Active” and the “inhibition only when coinjected with enzyme” value [2] was 30%.
`CN1CCC(=C2c3ccccc3C=Cc3ccccc32)CC1` [Cyproheptadine, reference compound] gave an ED50 [1] of 3.1 mg/kg.
`COc1ccc2c(c1)c(CC(=O)O)c(C)n2C(=O)c1ccc(Cl)cc1` [Indomethacin] gave an ED50 (carrageenan paw edema) of 3.7 mg/kg.
